In one data set the target is BRD4 (Homo sapiens, UniProt O60885). The note with it: McKeown et al., J Med Chem, 2014; cited from earlier work.
Data set [1] has as its system latent HIV-1 in J-Lat A2 cells. Description: HIV-1 latency-reversing flow cytometry assay in J-Lat A2 cells. The class given is cell-based. The note with it: 5 μM; for HIV-1 reactivation (GFP-positive cells): 24 hours post treatment. As to the method: (§1) The CD4+ T-lymphoid cell lines included Jurkat, J-Lat A2 (harboring an LTR-Tat-IRES-GFP construct), J-Lat 6.3, 8.4, 9.2, 10.4 (containing a full-length integrated HIV-1 genome with a defective envelop, that express GFP upon activation). Monocytic THP89GFP cells were provided by David Levy (New York University). Jurkat cells were cultured in RPMI with 10% FBS. THP89GFP and Primary CD4+ helper T cells (Sanguine Biosciences, Sherman Oaks, Calif. and Lonza Group Ltd., Basel, Switzerland) were cultured and maintained respectively in complete medium (RPMI 1640 with 10% FBS, lx glutamine, lx MEM non-essential amino acid solution, and 20 mM HEPES).
Wells were treated with 5 μM of compound or dimethyl sulfoxide (DMSO). GFP-positive cells were acquired and analyzed by flow cytometry at 24 hours post treatment.
(§2) All flow cytometry assays were conducted using an Accuri C6 Flow Cytometer (Accuri, Ann Arbor, Mich.). Cell debris and aggregates were excluded by gating on the Forward Scatter (FS) and Side Scatter (SS) parameters.

The target of a further data set is TAF1 (Homo sapiens, UniProt P21675). The note with it: McKeown et al., J Med Chem, 2014; cited from earlier work.
TAF1, sequence (P21675 whole entry): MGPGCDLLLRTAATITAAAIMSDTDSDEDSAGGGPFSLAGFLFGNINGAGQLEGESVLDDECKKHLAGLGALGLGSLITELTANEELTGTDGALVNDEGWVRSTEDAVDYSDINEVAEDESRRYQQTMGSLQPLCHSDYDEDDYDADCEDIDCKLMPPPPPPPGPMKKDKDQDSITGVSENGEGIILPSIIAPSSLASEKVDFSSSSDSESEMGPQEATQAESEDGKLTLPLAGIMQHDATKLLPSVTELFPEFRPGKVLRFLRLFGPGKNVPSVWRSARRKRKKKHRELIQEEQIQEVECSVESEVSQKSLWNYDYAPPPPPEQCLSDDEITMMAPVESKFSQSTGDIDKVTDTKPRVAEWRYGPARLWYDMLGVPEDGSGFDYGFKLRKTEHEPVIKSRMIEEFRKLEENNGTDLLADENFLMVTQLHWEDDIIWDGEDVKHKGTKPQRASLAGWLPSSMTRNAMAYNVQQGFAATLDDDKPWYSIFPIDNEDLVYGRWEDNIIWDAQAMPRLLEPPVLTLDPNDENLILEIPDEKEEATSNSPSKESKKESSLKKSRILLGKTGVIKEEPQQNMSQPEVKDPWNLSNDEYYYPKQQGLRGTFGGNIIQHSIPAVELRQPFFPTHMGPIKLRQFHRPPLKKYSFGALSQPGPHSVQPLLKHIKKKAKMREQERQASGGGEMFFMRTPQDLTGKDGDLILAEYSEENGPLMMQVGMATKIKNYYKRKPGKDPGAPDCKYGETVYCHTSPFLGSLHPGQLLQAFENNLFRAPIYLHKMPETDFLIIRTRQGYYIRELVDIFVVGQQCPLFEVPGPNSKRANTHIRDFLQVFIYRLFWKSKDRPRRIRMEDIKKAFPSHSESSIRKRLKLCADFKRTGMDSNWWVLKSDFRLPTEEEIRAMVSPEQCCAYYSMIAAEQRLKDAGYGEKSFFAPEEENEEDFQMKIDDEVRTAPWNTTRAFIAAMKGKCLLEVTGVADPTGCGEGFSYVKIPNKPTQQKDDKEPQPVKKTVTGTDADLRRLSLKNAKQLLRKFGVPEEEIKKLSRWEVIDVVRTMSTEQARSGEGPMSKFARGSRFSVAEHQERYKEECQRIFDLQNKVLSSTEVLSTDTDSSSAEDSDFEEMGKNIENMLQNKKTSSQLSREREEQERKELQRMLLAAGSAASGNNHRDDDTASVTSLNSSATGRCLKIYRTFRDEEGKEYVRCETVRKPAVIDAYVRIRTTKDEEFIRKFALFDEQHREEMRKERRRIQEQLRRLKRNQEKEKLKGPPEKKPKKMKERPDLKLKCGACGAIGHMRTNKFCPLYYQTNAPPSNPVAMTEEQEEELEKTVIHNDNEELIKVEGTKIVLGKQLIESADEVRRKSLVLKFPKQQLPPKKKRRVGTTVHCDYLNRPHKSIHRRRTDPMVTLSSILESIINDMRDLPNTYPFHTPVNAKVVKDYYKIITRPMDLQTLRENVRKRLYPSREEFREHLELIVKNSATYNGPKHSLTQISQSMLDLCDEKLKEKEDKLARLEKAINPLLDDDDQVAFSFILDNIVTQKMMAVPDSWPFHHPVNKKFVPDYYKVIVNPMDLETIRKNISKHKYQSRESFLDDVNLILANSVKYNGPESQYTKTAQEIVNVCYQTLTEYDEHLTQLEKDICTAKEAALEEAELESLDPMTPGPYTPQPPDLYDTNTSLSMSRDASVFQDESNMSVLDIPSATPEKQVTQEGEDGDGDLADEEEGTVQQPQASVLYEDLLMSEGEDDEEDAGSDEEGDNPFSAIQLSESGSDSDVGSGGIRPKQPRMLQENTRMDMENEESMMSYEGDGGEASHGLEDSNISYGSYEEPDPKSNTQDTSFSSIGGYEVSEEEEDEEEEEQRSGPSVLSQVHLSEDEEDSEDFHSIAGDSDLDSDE
The subject of data set [2] is latent HIV-1 in non-polarized, memory CD4+ T cells. As to the kind of experiment: Primary CD4+ T cell model of HIV-1 latency (blood or tonsil). In kind it is cell-based. The note with it: primary CD4+ T cells from blood or lymph node (tonsil), two donors; compound alone. As to the method: To acquire primary CD4+ T cells, primary CD4+ T cells were isolated from either lymphoid tissue (tonsil) or from the peripheral blood of two donors. Tonsils were isolated from HIV-negative donors, with obstructive sleep apnea (OSA), whom required surgical removal of their tonsils. Isolation of tonsillar mononuclear cells (TMC) was performed as described in Johnston et al. Curr Protoc Immunol Chapter 7, Unit 7-8. In brief, fresh, healthy tonsils kept in ice-cold 1× Hank's Balanced Salt Solution (HBSS) with antibiotics (100 U/mL penicillin, 100 ug/mL streptomycin, 5 ug/mL gentamicin, 0.5 ug/mL amphotericin) were cut into 3- to 10-mm fragments with scalpels then pushed through a 3-inch stainless steel sieve using the flat end of a 5-mL plastic syringe plunger. […]
The LRA effect of UMB-136 was studied by modifying slightly a primary CD4+ T cell model of HIV-1 latency as described in Bosque et al. Methods. […] On day 21, 5 days post treatment, the supernatant was collected for quantification of newly produced viruses using the Lent-X™ qRT-PCR Titration Kit (Clontech, Mountain View, Calif.) following the manufacturer's instructions.

Data set [3] deals with latent HIV-1 in J-Lat clones (6.3, 8.4, 9.2, and 10.4). Description: LRA combinations in J-Lat clones (flow cytometry, Bliss independence model). The class given is cell-based. The note with it: for Synergy in reversing HIV-1, combination with prostratin: +prostratin 1 μM. As to the method: (§3) The HIV-1 latency-reversing effect of UMB-136 was evaluated on different reservoirs (lymphocytes and macrophages), J-Lat cell clones (6.3, 8.4, 9.2, and 10.4) and THP89GFP were treated with DMSO, JQ1 (1 μM), or UMB-136 (2.5, 5 μM for J-Lat cells, 5 μM for THP89GFP). For the investigation of synergistic effects JLat clones were treated with UMB-136 (2.5 μM), JQ1 (1 μM), SAHA (0.5 μM) or prostratin (1 μM) or DMSO as a control. Drugs were used alone or in combination. Flow cytometry was conducted at 24 hours post treatment and GFP-positive cells were quantified.
as §2
Background: In flow cytometry, cells or beads pass a laser one at a time.

In data set [4] the test system is full-length HIV-1 NL4-3 (X4) viruses in Jurkat cells. As to the kind of experiment: Viral production in full-length HIV-1 NL4-3 infected Jurkat cells (qRT-PCR of medium). The class given is cell-based. The note with it: full replication competent NL4-3 infected Jurkat cells, 24 hours. As to the method:
To determine the effect of UMB-136 on HIV-1 replication, Jurkat cells were infected with full-length HIV-1 NL4-3 (X4) viruses for 8 hours before being treated with compounds (UMB-136, JQ1, or prostratin) for 24 hours. The medium was collected and subjected to viral RNA extraction, reverse transcription, and qPCR assays by using Lenti-X™ qRT-PCR Titration Kit (Clontech, Mountain View, Calif.) following the manufacturer's instructions.

For data set [5], the system named is latent HIV-1 in CD8-depleted PBMCs. The note with it: JQ1 in combination with bryostatin-1, earlier reports; cited from earlier work.
Data set [6] relates to latent HIV-1 in J-Lat clones (6.3, 8.4, 9.2, and 10.4). As to the kind of experiment: Flow cytometry on J-Lat full-length (dEnv) clones, single LRA. The note with it: J-Lat 6.3, 8.4, 9.2, 10.4; UMB-136 2.5 and 5 (printed PM), JQ1 1 μM; 24 hours. In kind it is cell-based. As to the method: as §1, §3
(§4) All flow cytometry assays were conducted using an Accuri C6 Flow Cytometer (Accuri, Ann Arbor, Mich.). […]

Data set [7] has as its system latent HIV-1 89.6 strain in THP89GFP cells. Description: Flow cytometry on THP89GFP monocytic latency cells. The class given is cell-based. The note with it: UMB-136 5 μM, JQ1 1 μM, 24 hours. As to the method:
as §1, §3, §4

A further data set has as its system primary CD4+ T cells. As to the kind of experiment: Cytokine release in primary CD4+ T cells from healthy donor. The class given is cell-based.
Data set [8] relates to latent HIV-1 in CD8-depleted PBMCs. Description: Ex vivo latency reversal in CD8-depleted PBMCs of cART-treated aviremic patients (nested qPCR). In kind it is cell-based.
Another data set concerns the target T1, BRD2 (Homo sapiens, UniProt P25440).
T1 construct: endogenous in cells; host or cells: HEK293
Description: Pull-down with biotinylated UMB-136 from HEK293 cell lysate, BRD2 immunoblot. The class given is binding. The note with it: biotinylated UMB-136, HEK293 cell lysate. As to the method:
(§5) Pull-down and Immunoprecipitation (IP) assays were performed by incubating HEK293 cell lysate with either biotinylated UMB-136 or biotin in DMSO at 4° C. overnight with orbital rocking. MyOne™ Streptavidin T1 Dynabeads™ (Invitrogen, Carlsbad, Calif.) were added to the mixture which was then incubated for 2 hours. Beads were washed and then boiled to elute precipitated proteins, which were subjected to immunoblotting using BRD4 antibody (Bethyl Laboratories, Inc., Montgomery, Tex.) or BRD2 antibody (Santa Cruz Biotechnology, Dallas, Tex.).

For another data set, the system named is P-TEFb (CCNT1) and Tat. As to the kind of experiment: Tat-Flag immunoprecipitation in HeLa cells, Cyclin T1 immunoblot. The class given is cell-based. The note with it: 2.5 μM, 24 hours. The method, then:
Tat-Flag expressing HeLa cells were treated with UMB-136 (2.5 μM) or DMSO for 24 hours, then incubated with Magnetic Flag Conjugated beads (Clontech, Mountain View, Calif.) at 4° C. for overnight with orbital rocking. Beads were washed and boiled, then immunoblotting was performed using Cyclin T1 antibody (Santa Cruz Biotechnology, Dallas, Tex.).

A further data set has as its system Jurkat cells. The note with it: human, 24 h, 2.5 μM.
The target of the next data set is T2, endogenous BRD4 (Homo sapiens, UniProt O60885).
T2 construct: endogenous in cells; host or cells: HEK293
Description: Pull-down with biotinylated UMB-136 from HEK293 cell lysate, BRD4 immunoblot. The note with it: biotinylated UMB-136, HEK293 cell lysate. The class given is binding. As to the method:
as §5
A general note: Immunoblotting shows a protein as a band on a membrane.

The subject of data set [9] is VSV-G pseudo-typed HIV-1 NL4-3-Luciferase virus infected Jurkat cells. In kind it is cell-based.
For a further data set, the system named is CD8-depleted PBMCs. Description: Cell death due to LRA treatments in CD8-depleted PBMCs. The class given is cell-based. The note with it: compared with JQ1 combinations.
Setting [10] is: J-Lat clones, Bliss independence model.

Data on three molecules can be found in US11247996B2, “Small molecule inhibitors for transcription factors” (University of Massachusetts, priority 2016, dated 2022).

T1 sequence (P25440 whole entry): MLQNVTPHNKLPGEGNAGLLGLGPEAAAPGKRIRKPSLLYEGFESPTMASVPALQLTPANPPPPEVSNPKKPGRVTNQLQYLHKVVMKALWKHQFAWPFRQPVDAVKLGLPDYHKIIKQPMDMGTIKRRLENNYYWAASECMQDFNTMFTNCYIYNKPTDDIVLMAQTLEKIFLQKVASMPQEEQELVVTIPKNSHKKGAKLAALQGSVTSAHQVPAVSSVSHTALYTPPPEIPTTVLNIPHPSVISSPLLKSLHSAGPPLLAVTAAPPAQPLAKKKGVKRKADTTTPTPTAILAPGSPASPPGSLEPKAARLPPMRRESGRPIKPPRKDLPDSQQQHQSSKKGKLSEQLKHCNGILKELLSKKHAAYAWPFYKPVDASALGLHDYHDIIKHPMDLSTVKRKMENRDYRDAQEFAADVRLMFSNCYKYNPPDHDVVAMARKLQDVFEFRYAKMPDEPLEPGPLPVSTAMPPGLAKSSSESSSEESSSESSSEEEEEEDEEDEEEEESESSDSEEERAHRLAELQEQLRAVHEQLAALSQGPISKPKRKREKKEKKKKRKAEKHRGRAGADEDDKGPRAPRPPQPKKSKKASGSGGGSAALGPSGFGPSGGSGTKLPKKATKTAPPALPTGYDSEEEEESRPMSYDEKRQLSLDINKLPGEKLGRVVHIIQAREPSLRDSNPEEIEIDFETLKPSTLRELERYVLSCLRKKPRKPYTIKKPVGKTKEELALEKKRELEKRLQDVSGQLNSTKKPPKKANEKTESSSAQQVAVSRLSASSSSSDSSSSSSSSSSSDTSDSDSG

As to `Cc1noc(C)c1-c1ccc(-c2nc3cnccn3c2NC(C)(C)C)cc1` [UMB-32], on BRD4, the “Binding to BRD4” value is “strongly binds” and the “Inhibition of target binding of BRD4” value is “potently inhibits the target binding of BRD4”. Besides, the “HIV-1 reactivation (GFP-positive cells)” value in [1] was “significantly induced HIV-1 reactivation”. Moreover, the “Binding to TAF1” value at TAF1 was “strongly binds”.
`Cc1sc2c(c1C)C(c1ccc(Cl)cc1)=N[C@@H](CC(=O)OC(C)(C)C)c1nnc(C)n1-2` [JQ1, reference compound]: in data set [2], the “Reactivation of latent virus” value is given as “fails to do so”. Moreover, the “Reactivation of latent HIV-1, combination with SAHA” value in data set [3] (J-Lat cell clones, JQ1+SAHA combination) is listed as “minimally reactivates latent HIV-1”. In addition, in [3] (setting [10]), the “Synergy in reversing HIV-1, combination with prostratin” value is “significantly synergizes with prostratin”. Further, the Viral production entry in [4] was “did not”. In data set [5], the “Reversal of HIV-1 latency, combination with bryostatin-1 (reported)” value was “potently reverse HIV-1 latency”. In data set [6], the “Reversal of HIV-1 latency (GFP-positive cells)” value is “no observable effect”. Further, the “Reactivation of latent HIV-1” value in data set [7] is given as “did not”.
On to `COc1cc(-c2c(C)noc2C)ccc1-c1nc2cnccn2c1NC1CCCCC1` [UMB-136], for which, in data set [2], the “Reactivation of latent virus” value is “efficiently reactivated latent virus”. Also, the “Synergy in reversing HIV-1, combination with SAHA” value in data set [3] (J-Lat clones, Bliss independence model, +SAHA 0.5 μM) was “statistically significant synergistic effect”. For the same molecule, in [3] (setting [10]), the “Synergy in reversing HIV-1, combination with prostratin” value is reported as “statistically significant synergistic effect”. The “HIV-1 reactivation in combination with SAHA or prostratin, compared with JQ1 combination” value in [3] (J-Lat clones, UMB-136 2.5 μM, SAHA 0.5 μM, prostratin 1 μM) is reported as “greater effect of HIV-1 reactivation than its JQ1 counterpart”. In addition, the Cytokine release entry in the data set on primary CD4+ T cells is recorded as “does not induce cytokine release”. In data set [4], the Viral production result is given as “enhanced viral production”. In [8], the “Viral reactivation, combination with bryostatin-1, compared with JQ1+bryostatin-1” value is recorded as “even greater viral reactivation”. Further, the “Reversal of HIV-1 latency, combination with PKC agonists (prostratin or bryostatin-1)” value in [8] (CD8-depleted PBMCs, UMB-136 2.5 μM, prostratin 250 nM or bryostatin-1 10 nM, 48 hours) is reported as “observed to reverse HIV-1 latency”. The “Binding to BRD2 (pull-down)” value on BRD2 is “not BRD2”. Also, the “Reversal of HIV-1 latency (GFP-positive cells)” value in [6] was “dramatically reversed HIV-1 latency”. In data set [1] (24 hours), the “HIV-1 latency-reversing potency relative to other UMB compounds” value was “most effective of all”. Besides, the “HIV-1 reactivation (GFP-positive cells)” value in data set [1] is reported as “significantly induced HIV-1 reactivation”. Further, the “Protein association between P-TEFb (CCNT1) and Tat” value in the data set with P-TEFb (CCNT1) and Tat was “greater protein association between P-TEFb (CCNT1) and Tat”. In addition, the Cell viability result in the data set with Jurkat cells was “same viability as 1 μM of JQ1”. In addition, the “Binding to endogenous BRD4 (pull-down)” value at endogenous BRD4 is “binds to endogenous BRD4”. In addition, the “Reactivation of latent HIV-1” value in [7] is recorded as “substantial reactivation”. In addition, the “HIV-1 transcriptional initiation and elongation” value in data set [9] was “enhances both transcriptional initiation and elongation of HIV-1”. Further, the “Cytotoxicity (cell death) of combinations with prostratin/bryostatin-1” value in the data set with CD8-depleted PBMCs is “less cytotoxicity than JQ1 and prostratin/bryostatin-1 combinations”.
